According to patent US8252781B2, “1,2-diazetidin-3-one derivatives and drugs containing same” (Kowa Company, Ltd., priority 2008, dated 2012):

What was measured:
Type in all cases: biochemical
[1] = target: T1, human 11β-HSD1 (Homo sapiens, UniProt P28845); test: Enzyme inhibitory activity, human 11β-HSD1 (lysate of stably expressing HEK293 cells, cortisol by competitive ELISA); details: Table 1; human 11β-HSD1, cell lysate, 37° C. for 1 hour; read-out: h HSD1 in vitro assay (IC50 uM)
T1 construct: The obtained PCR products of about 0.9 kbp, 1.2 kbp, and 0.9 kbp were subcloned into an expression vector pcDNA3.1+/Zeo; expressed in transfected cells
T1 sequence (P28845 whole entry): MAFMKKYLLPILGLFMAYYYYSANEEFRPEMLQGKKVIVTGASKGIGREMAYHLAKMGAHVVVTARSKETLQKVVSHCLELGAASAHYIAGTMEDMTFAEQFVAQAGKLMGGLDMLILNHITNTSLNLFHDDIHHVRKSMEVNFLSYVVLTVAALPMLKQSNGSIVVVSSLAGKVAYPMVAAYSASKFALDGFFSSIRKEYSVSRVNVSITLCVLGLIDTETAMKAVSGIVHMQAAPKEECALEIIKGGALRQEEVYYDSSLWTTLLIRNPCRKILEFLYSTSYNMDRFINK
Outline: (§1)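 Sonicated lysates of stably transfected cells (diluted to 0.1–0.4 mg/mL before addition) reacted for 1 h at 37 °C in pH 7.4 Tris/sucrose/EGTA/EDTA/MgCl2 buffer with 100 nmol/L cortisone or cortisol and 400 μmol/L NADPH or NAD+, then were heat-stopped at 95 °C. Inhibition rate = 100 minus residual activity.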

[2] = target: T2, mouse 11β-HSD1 (Mus musculus, UniProt P50172); test: Enzyme inhibitory activity, mouse 11β-HSD1 (lysate of stably expressing CHO-K1 cells, cortisol by competitive ELISA); details: Table 2; mouse 11β-HSD1, cell lysate, 37° C. for 1 hour; read-out: m HSD1 in vitro assay (IC50 uM)
T2 construct: The obtained PCR products of about 0.9 kbp, 1.2 kbp, and 0.9 kbp were subcloned into an expression vector pcDNA3.1+/Zeo; expressed in transfected cells
T2 sequence (P50172 whole entry): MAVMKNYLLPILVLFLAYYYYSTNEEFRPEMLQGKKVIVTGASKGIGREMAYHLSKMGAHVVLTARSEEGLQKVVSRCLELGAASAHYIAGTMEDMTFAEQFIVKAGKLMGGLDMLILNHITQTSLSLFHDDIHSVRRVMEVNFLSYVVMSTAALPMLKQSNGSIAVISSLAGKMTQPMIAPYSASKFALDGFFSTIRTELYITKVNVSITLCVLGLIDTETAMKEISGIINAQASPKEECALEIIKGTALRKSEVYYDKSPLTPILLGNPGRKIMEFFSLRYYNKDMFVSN
Outline: as §1

[3] = target: T3, human 11β-HSD2 (Homo sapiens, UniProt P80365); test: Enzyme inhibitory activity, human 11β-HSD2 (lysate of stably expressing HEK293 cells, cortisol by competitive ELISA); details: Table 1; human 11β-HSD2, cell lysate, 37° C. for 1 hour; read-out: h HSD2 in vitro assay (IC50 uM)
T3 construct: The obtained PCR products of about 0.9 kbp, 1.2 kbp, and 0.9 kbp were subcloned into an expression vector pcDNA3.1+/Zeo; expressed in transfected cells
T3 sequence (P80365 1-405): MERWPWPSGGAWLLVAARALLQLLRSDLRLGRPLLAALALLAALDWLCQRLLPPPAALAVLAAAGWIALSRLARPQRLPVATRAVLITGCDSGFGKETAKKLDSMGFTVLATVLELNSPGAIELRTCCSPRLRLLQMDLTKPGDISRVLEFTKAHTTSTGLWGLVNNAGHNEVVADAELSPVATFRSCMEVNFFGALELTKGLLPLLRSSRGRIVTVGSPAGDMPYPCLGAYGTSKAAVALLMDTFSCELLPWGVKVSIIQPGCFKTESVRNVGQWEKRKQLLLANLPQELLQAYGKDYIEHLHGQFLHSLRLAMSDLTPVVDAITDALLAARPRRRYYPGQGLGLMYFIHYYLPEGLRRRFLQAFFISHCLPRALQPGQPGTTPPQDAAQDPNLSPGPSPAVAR
Description: 1. Human 11β-HSD1-, Human 11β-HSD2- and Mouse 11β-HSD1-Gene Clonings and Establishment of Stably Expressing Cells
Human 11β-HSD1-, human 11β-HSD2-, and mouse 11β-HSD1-gene clonings were conducted using as a template a reverse transcription product of human-liver RNA, human-kidney RNA (CELL APPLICATIONS), and mouse-kidney RNA respectively, by means of PCR cloning with reference to nucleotide sequences of Genbank Accession Nos. NM_005525, NM_000196, and NM_008288. The obtained PCR products of about 0.9 kbp, 1.2 kbp, and 0.9 kbp were subcloned into an expression vector pcDNA3.1+/Zeo (Invitrogen).
Human 11β-HSD1- and human 11β-HSD2-expressing vectors were transfected into human kidney-derived cell line, HEK293 cells, using a transfection reagent, jet PEI (Funakoshi). Mouse 11β-HSD1 was transfected to Chinese hamster ovary-derived cell line, CHO-K1 cells. Selection was conducted with 200-400 μg/mL of zeocine (Invitrogen) to provide stably expressing-cell clones. The stably expressing cells were suspended in buffer solution A (20 mmol/L Tris-HCl, pH 7.4, 250 mmol/L sucrose, 1 mmol/L EGTA, 1 mmol/L EDTA, 1 mmol/L MgCl2), sonicated, and then stored at −80° C.
2. Assay of Enzyme Inhibitory Activity
An enzymatic reaction was conducted using a polystyrene 96-well plate. Each well was added with 1 μL of a test agent dissolved in DMSO and then diluted (0.003 to 3 mmol/L), and further added with 10 μL of cell lysate diluted to a concentration of 0.1 mg/mL to 0.4 mg/mL. Next, 90 μL of buffer solution A containing substrate (100 nmol/L cortisone or cortisol) and coenzyme (400 μmol/L NADPH or NAD+) was added and the mixture was incubated at 37° C. for 1 hour. The enzymatic reaction was stopped by treating at 95° C. for 3 minutes. Cortisol that was present in the reaction solution was determined by a competitive ELISA shown below.
Anti-rabbit IgG antibody (Chemi-con) diluted to 2 μg/mL with carbonate buffer solution (pH 9.6) was added in 100 μL each to a 96-well immuno plate (Nunc) and immobilized by an incubation at 4° C. overnight. 50 μL of enzymatic reaction solution was put onto the plates, and further, anti-cortisol antibody (Cosmo Bio) and HRP-labeled cortisol (Cosmo Bio), diluted with buffer solution B (25 mmol/L Tris-HCl pH 7.4, 137 mmol/L NaCl, 2.68 mmol/L KCl), were added in 50 μL respectively and incubated at 4° C. overnight. After washed three times with buffer solution B containing 0.05% Tween 20, the plates were allowed to develop color by adding 100 μL of color reagent, TMB (Moss). The color reaction was stopped by 25 μL of 1 mol/L sulfuric acid and the absorbance was determined at 450 nm with a microplate reader (Molecular Device, VersaMax).
The values of human 11β-HSD1, human 11β-HSD2, and mouse 11β-HSD1 activities were subtracted from 100, and the resultant values were regarded as the respective 11β-HSD inhibition rates of example compounds. […] The comparison of human 11β-HSD1 and human 11β-HSD2 inhibiting activities is shown in Table 1, and the comparison of human 11β-HSD1 and mouse 11β-HSD1 inhibiting activities is shown in Table 2.

Compound	IC50 [1] [µM]	IC50 [2] [µM]	IC50 [3] [µM]
CC1(C)C(=O)N(C2C3CC4CC(C3)CC2C4)N1c1ccc(O)cc1 (stereo not drawn) [Example 215, 4,4-dimethyl-1-(4-hydroxyphenyl)-2-(adamantan-2-yl)-1,2-diazetidin-3-one]	0.023	0.54	4.5
COCOc1ccccc1N1N(C2C3CC4CC(C3)CC2C4)C(=O)C1(C)C (stereo not drawn) [Example 218, 1-[2-(methoxymethoxy)phenyl]-4,4-dimethyl-2-(adamantan-2-yl)-1,2-diazetidin-3-one]	0.81	0.57	> 30
CC1(C)C(=O)N([C@H]2C3CC4CC2C[C@](O)(C4)C3)N1c1ccccc1Cl [Example 227, trans-1-(2-chlorophenyl)-2-(5-hydroxyadamantan-2-yl)-4,4-dimethyl-1,2-diazetidin-3-one]	0.023	0.95	3 to 30
COc1ccccc1N1N([C@H]2C3CC4CC2C[C@](Cl)(C4)C3)C(=O)C1(C)C [Example 250, trans-2-(5-chloroadamantan-2-yl)-1-(2-methoxyphenyl)-4,4-dimethyl-1,2-diazetidin-3-one]	0.042	0.13	> 30
CC1(C)C(=O)N([C@H]2C3CC4CC2C[C@](Cl)(C4)C3)N1c1cccc(Cl)c1Cl [Example 251, trans-2-(5-chloroadamantan-2-yl)-1-(2,3-dichlorophenyl)-4,4-dimethyl-1,2-diazetidin-3-one]	0.03	0.61	3 to 30
CC1(C)C(=O)N([C@H]2C3CC4CC2C[C@](Cl)(C4)C3)N1c1ccccc1O [Example 253, trans-2-(5-chloroadamantan-2-yl)-1-(2-hydroxyphenyl)-4,4-dimethyl-1,2-diazetidin-3-one]	0.013	0.15	3 to 30

More lines, now with the values ahead:

IC50 [1] [µM]	IC50 [2] [µM]	IC50 [3] [µM]	Compound
0.032	0.089	3 to 30	CC1(C)C(=O)N(C2C3CC4CC(C3)CC2C4)N1c1cccc2ccccc12 (stereo not drawn) [Example 212, 4,4-dimethyl-1-(naphthalen-1-yl)-2-(adamantan-2-yl)-1,2-diazetidin-3-one]
0.023	0.29	3 to 30	CC1(C)C(=O)N(C2CCCCCCC2)N1c1cccc(Cl)c1Cl [Example 221, 2-cyclooctyl-1-(2,3-dichlorophenyl)-4,4-dimethyl-1,2-diazetidin-3-one]
0.019	0.087	5.5	CC1(C)C(=O)N(C2CCCCCCC2)N1c1cccc2ccccc12 [Example 222, 2-cyclooctyl-4,4-dimethyl-1-(naphthalen-1-yl)-1,2-diazetidin-3-one]
0.05	0.9	> 30	CC1(C)C(=O)N([C@H]2C3CC4CC2C[C@@](C(=O)O)(C4)C3)N1c1cccc2ccccc12 [Example 272, cis-4-[2-(naphthalen-1-yl)-3,3-dimethyl-4-oxo-1,2-diazetidin-1-yl]adamantane-1-carboxylic acid]
